Measurements: ChEMBL document CHEMBL3044751, “Structure-based design, synthesis, and molecular modeling studies of 1-(benzo[d]thiazol-2-yl)-3-(substituted aryl)urea derivatives as novel anti-Parkinsonian agents” (2012)

Columns and labels:
Assay type in all cases: functional
Details in all cases: route intraperitoneal
[1] = tested on: Mus musculus; assay: Antiparkinsonian activity against haloperidol-induced catalepsy in Mus musculus Swiss albino (mouse) assessed as decrease in mean descent time at 100 mg/kg, ip administered 30 min prior to haloperidol injection measured after 60 min
[2] = tested on: Mus musculus; assay: Antiparkinsonian activity against haloperidol-induced catalepsy in Mus musculus Swiss albino (mouse) assessed as decrease in mean descent time at 100 mg/kg, ip administered 30 min prior to haloperidol injection measured after 150 min
[3] = tested on: Mus musculus; assay: Antiparkinsonian activity against haloperidol-induced catalepsy in Mus musculus Swiss albino (mouse) assessed as decrease in mean descent time at 100 mg/kg, ip administered 30 min prior to haloperidol injection measured after 90 min
[4] = tested on: Mus musculus; assay: Antiparkinsonian activity against haloperidol-induced catalepsy in Mus musculus Swiss albino (mouse) assessed as decrease in mean descent time at 100 mg/kg, ip administered 30 min prior to haloperidol injection measured after 180 min
[5] = tested on: Mus musculus; assay: Antiparkinsonian activity against haloperidol-induced catalepsy in Mus musculus Swiss albino (mouse) assessed as decrease in mean descent time at 100 mg/kg, ip administered 30 min prior to haloperidol injection measured after 120 min
[6] = tested on: Mus musculus; assay: Antiparkinsonian activity against haloperidol-induced catalepsy in Mus musculus Swiss albino (mouse) assessed reduction in catalepsy at 100 mg/kg, ip administered 30 min prior to haloperidol injection measured after 30 to 180 min; set-up: scale not given: the % may be the effect or the level left
[7] = tested on: Mus musculus; assay: Antiparkinsonian activity against haloperidol-induced catalepsy in Mus musculus Swiss albino (mouse) assessed as decrease in mean descent time at 100 mg/kg, ip administered 30 min prior to haloperidol injection measured after 30 min
[8] = tested on: Mus musculus; assay: Antiparkinsonian activity against haloperidol-induced oxidative stress in Mus musculus Swiss albino (mouse) assessed reduction in glutathione level in brain by measuring malondialdehyde level at 100 mg/kg, ip administered 30 min prior to haloperidol injection
[9] = tested on: Mus musculus; assay: Antiparkinsonian activity against haloperidol-induced oxidative stress in Mus musculus Swiss albino (mouse) assessed reduction in lipid peroxidation in brain by measuring malondialdehyde level at 100 mg/kg, ip administered 30 min prior to haloperidol injection by TBARS assay
[10] = tested on: Mus musculus; assay: Antiparkinsonian activity against haloperidol-induced oxidative stress in Mus musculus Swiss albino (mouse) assessed reduction in glutathione peroxidase activity in brain by measuring malondialdehyde level at 100 mg/kg, ip administered 30 min prior to haloperidol injection
[11] = tested on: Mus musculus; assay: Antiparkinsonian activity against haloperidol-induced oxidative stress in Mus musculus Swiss albino (mouse) assessed reduction in superoxide dismutase activity in brain by measuring malondialdehyde level at 100 mg/kg, ip administered 30 min prior to haloperidol injection by NBT reduction assay

SMILES	Time [1] [s]	Time [2] [s]	Time [3] [s]	Time [4] [s]	Time [5] [s]	Activity [6] [%]	Time [7] [s]	Activity [8] [µg/g]	Activity [9] [nmol/mg]	Activity [10] [U/g]	Activity [11] [U/mg]
COc1ccc(NC(=O)Nc2nc3ccccc3s2)cc1	69	180	117	181	160	53.1	43				
O=C(Nc1nc2ccccc2s1)Nc1ccccc1F	145	223	193	241	207	30.8	81				
O=C(Nc1ccc(F)cc1)Nc1nc2ccccc2s1	131	234	188	263	219	29.8	70				
O=C(Nc1nc2ccccc2s1)Nc1ccccc1Cl	98	212	134	289	205	37.1	57				
O=C(Nc1cccc(Cl)c1)Nc1nc2ccccc2s1	144	191	169	230	182	35.6	101				
O=C(Nc1ccc(Cl)cc1)Nc1nc2ccccc2s1	129	207	166	220	190	37.4	78				
O=C(Nc1nc2ccccc2s1)Nc1cc(C(F)(F)F)ccc1Cl	89	129	114	173	118	56.3	77				
O=C(Nc1nc2ccccc2s1)Nc1ccccc1[N+](=O)[O-]	56	99	77	130	85	71.4	23				
O=C(Nc1ccc([N+](=O)[O-])cc1)Nc1nc2ccccc2s1	138	234	181	253	199	30.5	90				
Cc1ccccc1NC(=O)Nc1nc2ccccc2s1	101	180	134	198	166	46.9	66				
Cc1ccc(NC(=O)Nc2nc3ccccc3s2)cc1	97	171	155	185	160	47.2	72				
COc1ccccc1NC(=O)Nc1nc2ccccc2s1	34	95	65	103	72	75.9	32	12.34	2.99	1.65	2.12
COc1ccc(NC(=O)Nc2nc3ccccc3s2)c(OC)c1	41	107	78	149	94	69.8	26				
COc1cc(NC(=O)Nc2nc3ccccc3s2)cc(OC)c1OC	46	115	81	122	89	70.1	37				
O=C(Nc1ccc(Oc2ccccc2)cc1)Nc1nc2ccccc2s1	67	189	126	196	161	50.5	51				
O=C(NCc1ccco1)Nc1nc2ccccc2s1	29	85	72	95	81	77.3	18	16.53	3.12	1.36	1.87
O=C(Nc1nc2ccccc2s1)Nc1ccccc1Br	128	201	156	224	173	36.7	118				
O=C(Nc1ccc(Br)cc1)Nc1nc2ccccc2s1	132	211	178	216	196	35.4	87				
O=C(CCCN1CCC(O)(c2ccc(Cl)cc2)CC1)c1ccc(F)cc1 [HALOPERIDOL]	242	300	264	300	300		155	5.57	4.92	0.68	0.85
N[C@@H](Cc1ccc(O)c(O)c1)C(=O)O [LEVODOPA]	49	122	99	137	119	65.6	32				
Nc1nc2c(cnn2CCc2ccccc2)c2nc(-c3ccco3)nn12 [SCH-58261]	19	58	36	72	45	86.4	11				
